Measured values as given in patent publication US12071469B2, “Peptide compounds for suppressing inflammation” (Duke University, priority 2011, dated 2024).

What was measured:
[1] = tested on: primary rat neuronal cortical culture exposed to NMDA; assay: Neuroprotection from NMDA mediated cell death in primary neuronal culture (LDH release); format: cell-based
Method: Peptides of 5 amino acids in length were applied to one or more samples of cells in parallel at concentrations ranging from about 0 to about 50 μM, such as 0.3, 3, and 30 μM. The peptides AL-10-1 (SEQ ID NO:18) and VL-17-9 (SEQ ID NO:19), which are longer peptides (12 amino acids each) were used as negative and positive controls, respectively. A series of peptides were screened in primary rat neuronal cortical culture exposed to NMDA using the method described in Aono et al., Neuroscience (2003) 116:437 and Aono et al., Neurobiology of Disease (2002) 11:214, both of which are incorporated by reference in their entirety (see Table 2). Neuroprotection from NMDA mediated cell death in primary neuronal culture was expressed as percentage decrease in LDH, 24 hours after exposure to NMDA compared to vehicle treated cultures (Table 2). LDH release is indicative of neuronal death after NMDA exposure. The peptide VR-55 (SEQ ID NO:4) reduced NMDA mediated excitotoxic cell death by approximately 19% at a concentration of 1 μM. […] The positive control peptide VL-17-9 reduced LDH release by 31%.
Dose response of the neuroprotection from NMDA excitotoxicity in primary neuronal culture was determined for ApoE mimetic peptide VR-55 (SEQ ID NO: 4). […] “0” indicates less than 5% suppression; “+” indicates 5-10% suppression; “++” indicates 11-20% suppression; and “+++” indicates greater than 20% suppression. In addition to VL-17-9, several other candidates had greater than 20% suppression, including VR-55, VL-5-1, VL-5-2 and VR-52.

[2] = tested on: mice with traumatic brain injury; assay: Morris water maze neurocognitive performance after traumatic brain injury; format: in vivo, mouse; settings: 0.05 mg/kg or 0.2 mg/kg iv at 2 h and 6 h after traumatic brain injury; days 28-31 post-injury; FIG. 4
Method: An experimental murine model for traumatic brain injury was developed. Laskowitz, et al. (2010) J. Neurotrauma, 27:1983-95. Male mice (age 12-14 weeks) were anesthetized with 4.3% isoflurane in oxygen in an anesthesia induction box for 90 seconds. The trachea was intubated and the lungs mechanically ventilated with 1.4% isoflurane in a 50/50 mixture of oxygen and nitrogen. Body temperature was maintained at 37° C. using surface heating/cooling. The top of the skull was exposed by a midline incision to identify anatomical landmarks, and a concave 3-mm metallic disc was secured to the skull surface with an adhesive, directly midline and just caudal to the bregma. […]
Another experimental procedure for measuring neurological deficits was developed using a Morris water maze. […] Latency to finding the platform and swimming speed were recorded using a computerized video tracking system (Ethovision 2.2.14; available from Noldus Information Technology, Leesburg VA).
Groups of mice received either an ApoE mimetic peptide (SEQ ID NO:4; 0.05 mg/kg) or carrier (saline) by intravenous tail vein injection at 2 hours and again at 6 hours after traumatic brain injury induced as described in Example 3. Each mouse was tested for vestibulomotor function by rotorod latency measured before and after injury, as described in Example 3. […]

Question: Which results are given for Ac-VSRRR-NH2 [VR-55, Ac-VSRRR-NH2]?
Answer: dose response of percent suppression of LDH release after NMDA exposure ([1]; FIG. 6): dose dependent; percentage decrease in LDH, 24 hours after exposure to NMDA compared to vehicle treated cultures ([1]; peptide 0.1 μM): −2.85%; percentage decrease in LDH, 24 hours after exposure to NMDA compared to vehicle treated cultures ([1]; peptide 0.3 μM): 1.50%; suppression of LDH release, cumulative data (class) ([1]; peptide 1 μM, cumulative data): +++ (greater than 20% suppression); percentage decrease in LDH, 24 hours after exposure to NMDA compared to vehicle treated cultures ([1]; peptide 3 μM): 15.91%; neurocognitive outcomes (Morris water maze latency) [2]: improved neurocognitive outcomes
